{
  "source": "patent US12691186B2",
  "about": "“B7-H3 miniproteins, conjugates, and uses thereof” (priority 2023, dated 2026)",
  "key": {"[1]": {"tested_on": "opossum kidney proximal tubule cells", "assay": "OK-PTC uptake assay of miniprotein conjugates in presence of scaffold A decoys", "assay_type": "cell-based", "conditions": "compound 20 μM; for % Uptake reduction in the presence of a decoy C118: 20-fold molar excess of decoy C118; for % Uptake reduction in the presence of a decoy C119: 20-fold molar excess of decoy C119; for % Uptake reduction in the presence of a decoy C120: 20-fold molar excess of decoy C120", "method": "This Example describes reduction of uptake of exemplary truncated and constrained B7-H3 miniprotein conjugates (C272, C308, C234, C394, C250, and C228) when combined with exemplary scaffold A decoys (C118, C119 and C120) as compared to no decoy. Uptake of compounds was evaluated in opossum kidney proximal tubule cells (as described in Example 5). Here, cells were treated with a compound in the presence or absence of a 20-fold molar excess of exemplary scaffold A decoys, C118, C119, and C120. Results depicting uptake of six exemplary B7-H3-targeting compounds, C272, C308, C234, C394, C250, and C228, in OK-PTC cells in the presence and absence of exemplary decoys C118, C119, and C120 (scaffold A decoys) are shown in Table 13. The B7-H3-targeting compounds were used at 20 μM and the decoys used at a 20-fold (with C272, C308, C234, C394, and C250) and 10-fold (with C228) molar excess."}, "[2]": {"assay": "Thermal stability (Tm) of B7-H3 miniprotein conjugates", "assay_type": "physicochemical", "method": "Thermal stability was assessed for several exemplary miniprotein conjugates and reported as Tm (e.g., see Table 7A).\nAs compared to unconstrained sequences (e.g., as in Table 2A and shown for C211 in Table 7A), those with disulfide bonds (e.g., as in Table 2C and shown for C234, C275, C294, and C309 in Table 7A) were more thermally stable (see Table 7A), and exemplary compounds with two disulfide bridges (C234, C275, and C309) were stable at higher temperatures than an exemplary compound with one disulfide bridge (C294)."}, "[3]": {"assay": "In vitro metabolic stability, kidney brush border membrane (KBBM), mouse", "assay_type": "in vitro ADME", "conditions": "37° C.", "text": "(§1) This Example describes in vitro metabolic stability of exemplary B7-H3 miniprotein conjugates.\n(§2) Pharmacokinetic assessments are described in Example 18."}, "[4]": {"assay": "In vitro metabolic stability, plasma, mouse", "assay_type": "in vitro ADME", "conditions": "37° C.", "text": "as §1, §2"}, "[5]": {"tested_on": "opossum kidney proximal tubule cells", "assay": "Proximal tubule epithelial cell (OK cell) uptake assay relative to control C4", "assay_type": "cell-based", "protocol": "Inhibition constant (Ki) of each conjugate was measured using DELFIA as described herein."}, "[6]": {"tested_on": ">6,500 different human proteins", "assay": "Off-target binding, cell microarray platform (Retrogenix Assay) in HEK293 cells", "conditions": "biotin-labeled molecules", "method": "To evaluate potential off-target binding, eight biotin-labeled molecules were tested in a cell microarray platform (Charles River Lab, Retrogenix Assay) having >6,500 different human proteins spanning diverse functions and subcellular locations.\nInitially, two pools of molecules were tested. Pool #1 consisted of C298, C300, C302, C304, and pool #2 consisted of C306, C308, C310, and C312 at 2 μg/mL for each molecule. To perform this assay, HEK293 cells were plated on a dish and localized spots of cells were transiently over-expressed with a cDNA encoding for one of the >6,500 targets. Included in this library were two isoforms of CD276 (B7-H3) and B7-H3 related proteins (B7-1, B7-2, B7-H1/PD-L1, and B7-H2). The molecule pools were incubated on the fixed, over-expressing cell microarrays (n=2 per protein), and binding was visualized using Alexa Fluor 647 streptavidin fluorescence. All transfection efficiencies exceeded minimum thresholds for the microarray expression targets. Preliminary interactions identified from pooled results were re-spotted in duplicates, and each of the eight compounds were tested individually (n=2) at 2 μg/mL and/or in dose response against these targets as described above to validate the interactions.\nAll positive control interactions were strong and passed quality control. Specific interactions observed (median SNR≥1) confirmed on-target B7-H3 binding in two different isoforms for each of the eight test molecules. These interactions with the primary target occurred after fixation and in live cells (absence of fixation). No significant additional interactions were confirmed for any test molecules outside of B7-H3, indicating high specificity for the primary target (data not shown)."}},
  "note": "Bridges are numbered along the chain shown (N, C = ends). Primed or numbered codes have the meaning given here. Where no end group is shown, it is not given here. [ ]: non-standard residue; d: D form. The star is where a group is joined. DOTA = O=C(O)CN1CCN(CC(=O)O)CCN(CC(=O)*)CCN(CC(=O)O)CC1; Biotin = O=C1N[C@H]2[C@H](CS[C@H]2CCCCC(=O)*)N1; Lys(Me2) = CN(C)CCCC[C@H](N)C(=O)O; PEG4 = NCCOCCOCCOCCOCCC(=O)O; PEG4′ = not defined here",
  "data": [
    {"compound": "CC[C@H](C)[C@@H]1NC(=O)[C@H](Cc2ccccc2)NC(=O)[C@H](C)NC(=O)[C@H](CCCCN(C)C)NC(=O)[C@H]([C@@H](C)CC)NC(=O)[C@H](CCC(N)=O)NC(=O)[C@H](C)NC(=O)[C@H](Cc2ccc(O)cc2)NC(=O)[C@H]([C@@H](C)O)NC(=O)[C@H](CC(C)C)NC(=O)[C@@H]2CSSC[C@@H](C(=O)N[C@@H](CO)C(N)=O)NC(=O)[C@H](CC(C)C)NC(=O)[C@H](CCC(=O)O)NC(=O)[C@H](CCCCN)NC(=O)[C@H](C)NC(=O)[C@H](CCC(=O)O)NC(=O)[C@H](CO)NC(=O)[C@H](CC(C)C)NC(=O)[C@H]([C@@H](C)CC)NC(=O)[C@H](CCC(=O)O)NC(=O)[C@H](CO)NC(=O)[C@H](CO)NC(=O)[C@H](CCC(N)=O)NC(=O)[C@H](CSSC[C@H](NC(=O)CCOCCOCCOCCOCCNC(=O)CCCC[C@@H]3SC[C@@H]4NC(=O)N[C@@H]43)C(=O)N[C@@H](C)C(=O)N[C@@H](CCCC[N+](C)(C)C)C(=O)N[C@@H](CCC(=O)O)C(=O)N[C@@H](CCCCN)C(=O)N[C@@H]([C@@H](C)CC)C(=O)N[C@@H](C)C(=O)N[C@@H](C)C(=O)N[C@@H](CC(C)C)C(=O)N[C@@H](CO)C(=O)N[C@@H](CCC(=O)O)C(=O)N[C@@H]([C@@H](C)CC)C(=O)N[C@@H]([C@@H](C)CC)C(=O)N[C@@H](Cc3c[nH]c4ccccc34)C(=O)N[C@@H](CC(C)C)C(=O)N3CCC[C@H]3C(=O)N2)NC(=O)[C@@H]2CCCN2C(=O)[C@H](CC(=O)O)NC(=O)[C@H](CC(=O)O)NC(=O)[C@H](CC(N)=O)NC(=O)[C@H](CC(C)C)NC(=O)[C@H](C)NC(=O)[C@H](C)NC1=O", "note": "[Compound C234]", "values": [
      {"measurement": "% Uptake reduction in the presence of a decoy C118", "setting": "[1]", "result": 86.4, "unit": "%"},
      {"measurement": "% Uptake reduction in the presence of a decoy C119", "setting": "[1]", "result": 96.2, "unit": "%"},
      {"measurement": "% Uptake reduction in the presence of a decoy C120", "setting": "[1]", "result": 96.9, "unit": "%"},
      {"measurement": "Tm (° C.)", "setting": "[2]", "result": "~≥75 °C"}
    ]},
    {"compound": "C44: B7-H3 miniprotein test article of Table 5 ({DOTA-PEG4′}-YAQEKIAALSEIIWLPNLTHGQIMAFIAALNNDPSQSSELLSEALALNDSQAPG; also: In complexed by DOTA) [Compound C44]", "values": [
      {"measurement": "In vitro Stability (mouse) - KBBM", "setting": "[3]", "result": ">12"},
      {"measurement": "In vitro Stability (mouse) - Plasma", "setting": "[4]", "result": ">12"}
    ]},
    {"compound": "C41 ({DOTA-PEG4′}-AEALYAQEKIAALSEIIWLPNLTHGQIMAFIAALNNDPSQSSELLSEAEQLNDSQAPG-OH; also: In complexed by DOTA) [Compound C41]", "values": [
      {"measurement": "In vitro Stability (mouse) - KBBM", "setting": "[3]", "result": ">12"},
      {"measurement": "In vitro Stability (mouse) - Plasma", "setting": "[4]", "result": ">12"}
    ]},
    {"compound": "{Biotin-PEG4}-CAREKIAALSEIIWLPCLTYAQIVAFIAALNDDPCQSSEILSEAKELCS-NH2 (disulfide 1-35, 17-48) [Compound C291]", "values": [
      {"measurement": "% Uptake of C4", "setting": "[5]", "result": 30, "unit": "%"}
    ]},
    {"compound": "{Biotin-PEG4}-CAREKIAALSEIIWLPCLTYAQI[Lys(Me2)]AFIAALNDDPCQSSEILSEAKELCS-NH2 (disulfide 1-35, 17-48) [Compound C275]", "values": [
      {"measurement": "% Uptake of C4", "setting": "[5]", "result": 3, "unit": "%"},
      {"measurement": "Tm (° C.)", "setting": "[2]", "result": "~≥75 °C"}
    ]},
    {"compound": "CC[C@H](C)[C@@H]1NC(=O)[C@H](Cc2ccccc2)NC(=O)[C@H](C)NC(=O)[C@H](CCCCNC)NC(=O)[C@H]([C@@H](C)CC)NC(=O)[C@H](CCC(N)=O)NC(=O)[C@H](C)NC(=O)[C@H](Cc2ccc(O)cc2)NC(=O)[C@H]([C@@H](C)O)NC(=O)[C@H](CC(C)C)NC(=O)[C@@H]2CSSC[C@@H](C(=O)N[C@@H](CO)C(N)=O)NC(=O)[C@H](CC(C)C)NC(=O)[C@H](CCC(=O)O)NC(=O)[C@H](CCCCNC)NC(=O)[C@H](C)NC(=O)[C@H](CCC(=O)O)NC(=O)[C@H](CO)NC(=O)[C@H](CC(C)C)NC(=O)[C@H]([C@@H](C)CC)NC(=O)[C@H](CCC(=O)O)NC(=O)[C@H](CO)NC(=O)[C@H](CO)NC(=O)[C@H](CCC(N)=O)NC(=O)[C@H](CSSC[C@H](NC(=O)CCOCCOCCOCCOCCNC(=O)CCCC[C@@H]3SC[C@@H]4NC(=O)N[C@@H]43)C(=O)N[C@@H](C)C(=O)N[C@@H](CCCC[N+](C)(C)C)C(=O)N[C@@H](CCC(=O)O)C(=O)N[C@@H](CCCCN)C(=O)N[C@@H]([C@@H](C)CC)C(=O)N[C@@H](C)C(=O)N[C@@H](C)C(=O)N[C@@H](CC(C)C)C(=O)N[C@@H](CO)C(=O)N[C@@H](CCC(=O)O)C(=O)N[C@@H]([C@@H](C)CC)C(=O)N[C@@H]([C@@H](C)CC)C(=O)N[C@@H](Cc3c[nH]c4ccccc34)C(=O)N[C@@H](CC(C)C)C(=O)N3CCC[C@H]3C(=O)N2)NC(=O)[C@@H]2CCCN2C(=O)[C@H](CC(=O)O)NC(=O)[C@H](CCCCNC)NC(=O)[C@H](CC(N)=O)NC(=O)[C@H](CC(C)C)NC(=O)[C@H](CCCCNC)NC(=O)[C@H](C)NC1=O", "note": "[Compound C308]", "values": [
      {"measurement": "background binding to untransfected HEK293 cells", "setting": "[6]", "result": "low-background binding"},
      {"measurement": "% Uptake reduction in the presence of a decoy C118", "setting": "[1]", "result": 107.9, "unit": "%"},
      {"measurement": "% Uptake reduction in the presence of a decoy C119", "setting": "[1]", "result": 108.6, "unit": "%"},
      {"measurement": "% Uptake reduction in the presence of a decoy C120", "setting": "[1]", "result": 104.5, "unit": "%"}
    ]},
    {"compound": "{Biotin-PEG4}-CAREKIAALSEIIWLPCLTYAQILAFIAALNDDPCQSSEILSEAKELCS-NH2 (disulfide 1-35, 17-48) [Compound C286]", "values": [
      {"measurement": "% Uptake of C4", "setting": "[5]", "result": 26, "unit": "%"}
    ]},
    {"compound": "{Biotin-PEG4}-CAREKIAALSEIIWLPCLTYAQIKAFIAALNDDPCQSSEILSEAKELCS-NH2 (disulfide 1-35, 17-48) [Compound C284]", "values": [
      {"measurement": "% Uptake of C4", "setting": "[5]", "result": 56.6, "unit": "%"}
    ]},
    {"compound": "{Biotin-PEG4}-CAREKIAALSEIIWLPCLTYAQIQAFIAALNDDPCQSSEILSEAKELCS-NH2 (disulfide 1-35, 17-48) [Compound C290]", "values": [
      {"measurement": "% Uptake of C4", "setting": "[5]", "result": 17, "unit": "%"}
    ]}
  ]
}
